Like-named read-outs stand apart in the source and are kept apart here.
Key:
SARS-CoV-2 [1] = test: microbe, parasite or virus in culture; type: cell-based; conditions: for IC50: read-out: IC50 against SARS-CoV-2 infection
SigmaR2 = conditions: literature value (Diaz et al. 2012); cited from earlier work
SARS-CoV-2 [2] = conditions: Gordon et al. 2020; cited from earlier work
SigmaR1 = conditions: read-out: SigmaR1 IC50; literature values (Moebius et al. 1997; Diaz et al. 2012); cited from earlier work
[3] = Severe acute respiratory syndrome coronavirus 2, Huh-7
[4] = Severe acute respiratory syndrome coronavirus 2, Huh-7 cells, MOI 0.2, 10-point two-fold dilution dose response in triplicate
[5] = Severe acute respiratory syndrome coronavirus 2, Huh-7 cells

Compound: COc1ccc(CCN(C)CCCC(C#N)(c2ccc(OC)c(OC)c2)C(C)C)cc1OC (stereo not shown) [Verapamil]
- EC50 (SARS-CoV-2 [1]; [3]): 458 nM

Compound: Cc1cc(OCCN2CCOCC2)nn1-c1ccc2ccccc2c1 [S1RA, 4-{2-[5-methyl-1-(naphthalen-2-yl)-1H-pyrazol-3-yloxy]ethyl}morpholine]
- EC50 (SARS-CoV-2 [1]; [4]): 222 nM
- IC50 (SARS-CoV-2 [1]; [5]): 222 nM
- cell toxicity (Huh-7 cells): limited cell toxicity
- IC50 (SigmaR2): > 1000 nM
- antiviral activity in Vero-E6 cells (SARS-CoV-2 [2]): not observed
- IC50 (SigmaR1): 17 nM

Compound: CCc1nc(C(N)=O)c(Nc2ccc(N3CCC(N4CCN(C)CC4)CC3)c(OC)c2)nc1NC1CCOCC1 [Gilteritinib]
- EC50 (SARS-CoV-2 [1]; [4]): 207 nM

Compound: Cc1cnc(Nc2ccc(OCCN3CCCC3)cc2)nc1Nc1cccc(S(=O)(=O)NC(C)(C)C)c1 [Fedratinib]
- EC50 (SARS-CoV-2 [1]; [4]): 25 nM
- IC50 (SARS-CoV-2 [1]; [5]): 25 nM

Compound: CCN(CC)CCNC(=O)c1cc(Cl)c(N)cc1OC [Metoclopramide]
- antiviral activity against SARS-CoV-2 (in words) (SARS-CoV-2 [1]; Huh-7 cells): dose dependent antiviral activity
- EC50 (SARS-CoV-2 [1]; [4]): 469 nM

Compound: CC(NC(=O)[C@H](Cc1ccccc1)NC(=O)OCc1ccccc1)C(=O)CF (stereo partly shown) [Z-FA-FMK]
- EC50 (SARS-CoV-2 [1]): 107 nM
- antiviral activity against SARS-CoV-2 (in words) (SARS-CoV-2 [1]; Huh-7 cells): potent antiviral activity

Compound: CCC(CC)COC(=O)[C@H](C)N[P@](=O)(OC[C@H]1O[C@@](C#N)(c2ccc3c(N)ncnn23)[C@H](O)[C@@H]1O)Oc1ccccc1 [Remdesivir]
- EC50 (SARS-CoV-2 [1]; [3]): 95 nM

Compound: O=C(NC1CCN(CCCCC2(C(=O)NCC(F)(F)F)c3ccccc3-c3ccccc32)CC1)c1ccccc1-c1ccc(C(F)(F)F)cc1 [Lomitapide]
- EC50 (SARS-CoV-2 [1]; [4]): 1580 nM

Compound: O=C(Nc1ccc([N+](=O)[O-])cc1Cl)c1cc(Cl)ccc1O [Niclosamide]
- EC50 (SARS-CoV-2 [1]; [4]): 142 nM

Compound: Nc1nc2nc[nH]c2c(=S)[nH]1 [Thioguanine]
- EC50 (SARS-CoV-2 [1]; [4]): 232 nM

Compound: transferrin: the protein transferrin (Sigma Aldrich, T2036)
- anti-SARS-CoV-2 activity, percentage of infected Huh-7 cells (SARS-CoV-2 [1]; Huh-7 cells, protein at 2.3 μM, FIG. 6E): devoid of any anti-SARS-CoV-2 activity

Compound: C=C1[C@H](CO)[C@@H](O)C[C@@H]1n1cnc2c(=O)[nH]c(N)nc21 [Entecavir]
- EC50 (SARS-CoV-2 [1]; [4]): 201 nM

Compound: COc1cc(Nc2c(C#N)cnc3cc(OCCCN4CCN(C)CC4)c(OC)cc23)c(Cl)cc1Cl [Bosutinib]
- EC50 (SARS-CoV-2 [1]; [3]): 28 nM

Compound: C[C@@H]1CCN(C(=O)CC#N)C[C@@H]1N(C)c1ncnc2[nH]ccc12 [tofacitinib]
- antiviral activity against SARS-CoV-2 (in words) (SARS-CoV-2 [1]; Huh-7 cells): the latter was the only one active

Compound: C[C@@](Cc1ccc(O)c(O)c1)(NN)C(=O)O [Carbidopa]
- exacerbation of SARS-CoV-2 infection (SARS-CoV-2 [1]; Huh-7 cells): exacerbate SARS-CoV-2 infection

Compound: CC(C)(C#N)c1cc(Cn2cncn2)cc(C(C)(C)C#N)c1 [anastrozole]
- exacerbation of SARS-CoV-2 infection (SARS-CoV-2 [1]; Huh-7 cells): exacerbate SARS-CoV-2 infection

Compound: CC(C)N=c1cc2n(-c3ccc(Cl)cc3)c3ccccc3nc-2cc1Nc1ccc(Cl)cc1 [Clofazamine]
- EC50 (SARS-CoV-2 [1]): 105 nM

Source: patent US20240016901A1, “COMPOSITIONS AND METHODS FOR PREVENTING AND TREATING SARS-COV-2 INFECTION” (priority 2020, published 2024)
